Test results from paper PMC4393181, “The Chemopotential Effect of Annona muricata Leaves against Azoxymethane-Induced Colonic Aberrant Crypt Foci in Rats and the Apoptotic Effect of Acetogenin Annomuricin E in HT-29 Cells: A Bioassay-Guided Approach” (PLoS ONE, 2015).
In brackets after ≈: the same amount, converted by molar mass. Like-named read-outs stand apart in the source and are kept apart here. Blank lines part the entries; values can stand above or below the molecule they belong to.

Tests used:
AOM-induced colonic ACF = experiment: Counting of AOM-induced colonic aberrant crypt foci (methylene blue staining); type: in vivo, Sprague Dawley rats; conditions: group E
Procedure: The experiment was performed as previously described in detail. Thirty male rats (n = 6 per group) in five groups (negative control, cancer control, low dose of EEAML, high dose of EEAML and treatment control) were subcutaneously injected once a week for two consecutive weeks according to the “Induction” column in Table 1. Then, all of the rodents were orally fed once a day for two months based on the experimental design (Table 1), except for the treatment control group, which was intra-peritoneally injected with 35 mg/kg of 5-FU (Sigma, St. Louis, MO, USA) for five consecutive days. The condition of the animals was observed every morning throughout the experimental period.
To determine the intensity of colonic ACF formation after 10 weeks of injection with AOM, ACF counting was performed as previously described in detail. In brief, rats were anesthetized with a high dose of ketamine (30 mg/kg, 100 mg/mL) and xylazine (3 mg/kg, 100 mg/mL) under aseptic conditions. The excised colon was flushed with phosphate buffered saline (PBS, Sigma), opened longitudinally and fixed flat between filter papers overnight at 4°C using 10% buffered formalin. Equal lengths of the proximal and distal portions of the fixed colons were stained with 0.5% methylene blue solution. After washing away the excess stain, topographic analysis was performed under a light microscope (Nikon, Tokyo, Japan) to score the total number of ACF, as well as the number of crypts per focus.

PCNA = experiment: Immunohistochemistry of colon tissue sections, PCNA labeling index; type: in vivo, Sprague Dawley rats; conditions: 5-FU 35 mg/kg, colon tissue of AOM-induced rats (cancer control PI 81%, negative control 4%)
Procedure: (§1) Immunohistochemical evaluation of proliferating cell nuclear antigen (PCNA), Bax and Bcl-2 proteins was performed on deparaffinized tissue sections using the commercial Dako ARK Peroxidase kit (DAKO, Carpinteria, CA, USA) according to the vendor’s instructions. In brief, the antigen retrieval process of tissue sections was performed using 10 mM citrate buffer (pH 6.0); the tissue sections were then washed with PBS and blocked with peroxidase blocking buffer. Next, the tissue sections were incubated with diluted mouse PCNA (1:100, Cat: ab2426), Bax (1:100, Cat: ab7977) and Bcl-2 (1:100, Cat: ab7973) antibodies (Abcam, Cambridge, MA, USA) for 15 min. All of the slides were then incubated with the appropriate amount of streptavidin-HRP for 30 min at room temperature. The slides were developed with a diaminobenzidine (DAB) substrate-chromogen system and were counterstained in hematoxylin. The measurement of the PCNA labeling index (PI) was calculated using the formula below.
PI = number of positive cells/total number of epithelial cells ×100

Bax [1] = experiment: Immunohistochemistry of colon tissue sections for Bax; type: in vivo, Sprague Dawley rats; conditions: AOM-induced rats; EEAML both doses (250 and 500 mg/kg), 5-FU 35 mg/kg
Procedure: as §1

Bcl-2 [2] = experiment: Immunohistochemistry of colon tissue sections for Bcl-2; type: in vivo, Sprague Dawley rats; conditions: AOM-induced rats; EEAML both doses (250 and 500 mg/kg), 5-FU 35 mg/kg
Procedure: as §1

[3] = test system: HT-29 (human colon cancer cells); experiment: MTT assay on HT-29 cells; type: cell-based; conditions: mean ± SEM of three experiments
Procedure: (§2) CCD841 (normal human colon epithelial cells) and HT-29 (human colon cancer cells) were purchased from the American Type Cell Collection (ATCC, Manassas, VA, USA). The cells were maintained at 37°C in a humidified atmosphere of 5% CO2. The culture medium consisted of Dulbecco’s Modified Eagles medium (Sigma) that was supplemented with 10% Fetal Bovine Serum (PAA Laboratories, Pasching, […]), 100 μg/ml streptomycin (Sigma) and 100 U/ml penicillin (Sigma). The untreated medium containing 0.1% vehicle DMSO was applied as the negative control for all of the assays in the in vitro study.
(§3) Cell viability analysis was performed using the MTT assay as described previously. In brief, cells (5 × 10^4 cells/ml) at the exponential phase of growth were seeded in a 96-well plate and treated with serial concentrations of the tested agent (0.62, 1.25, 2.5, 5, 10, 20, 40 and 80 μg/ml) for 12, 24 and 48 h. 5-FU, a standard anticancer drug, was used as a positive control in this assay. After incubation, 20 μl of the MTT solution (5.0 mg/ml, Sigma) was loaded into each well, and the cells were further incubated at 37°C for 4 h. DMSO (150 μl) was then used to dissolve the formazan crystals. The cytotoxicity against cancer and normal cells was measured at the absorbance of 570 nm using an ELISA reader (Asys UVM340, Eugendorf, Austria). The data were then processed, and the antiproliferative potential of the tested agents was expressed as IC50 values, the concentration that causes a 50% inhibition of cell growth.

[4] = test system: CCD841 (normal human colon epithelial cells); experiment: MTT assay on CCD841 cells; type: cell-based; conditions: mean ± SEM of three experiments
Procedure: as §2, §3

HT-29 cells [5] = experiment: LDH release assay; type: cell-based, human; conditions: HT-29, 24 h, compared with 0.1% DMSO control
Procedure: To further confirm the cytotoxic effects of annomuricin E on HT-29 cells, the LDH release assay was performed using the Pierce LDH Cytotoxicity Assay Kit (Thermo Scientific, Pittsburgh, PA, USA) as previously described. Briefly, HT-29 cells at the exponential phase of growth were treated with different concentrations of annomuricin E and Triton X-100 (positive control) for 24 h. After the incubation, the treated HT-29 cells were exposed to the LDH reaction solution (100 μl) for 30 min. The red color intensity, representing the level of released LDH, was then measured at 490 nm using the Tecan Infinite 200 Pro (Tecan, Männedorf, Switzerland) microplate reader. The result of LDH release was calculated as a percentage of the positive control.

HT-29 cells [6] = experiment: Cell cycle assay (PI staining, flow cytometry); type: cell-based, human; conditions: HT-29, IC50 concentration
Procedure: To determine the effect of annomuricin E on the cell cycle distribution, flow cytometric analysis was performed as described previously. […] After incubation, the treated HT-29 cells were harvested, washed twice with ice-cold PBS and fixed overnight at 4°C with 90% ethanol. The following day, the cells were washed and stained with propidium iodide (PI, 100 μl, 1 mg/ml). The cellular RNA was degraded using the enzyme RNAse A (200 μg/ml, Sigma). The stained cells were instantly examined using a BD FACSCanto II flow cytometer (BD Biosciences, San Jose, CA, USA) by analyzing 10,000 cells per sample. The data were processed using ModFit LT software (Verity Software House, Inc., Topsham, ME, USA).

HT-29 cells [7] = experiment: Annexin V-FITC/PI detection of early and late apoptosis; type: cell-based, human; conditions: HT-29, IC50 concentration
Procedure: Flow cytometric analysis was performed to quantify early and late apoptosis in treated HT-29 cells using the commercial BD Pharmingen Annexin V-FITC Apoptosis Detection kit (APOAlert Annexin V; Clontech, Mountain View, CA, USA). […] After incubation, the treated cells were harvested, washed twice with PBS and suspended in the Annexin-V binding buffer. The cells were then supplemented with Annexin-V-FITC and PI, according to the vendor’s instructions. The stained cells were examined using a BD FACSCanto II flow cytometer. Early and late apoptotic cells and necrotic cells were quantitatively detected using a quadrant statistics analysis.

caspase 3/7 = experiment: Caspase-Glo 3/7 luminescence assay; type: cell-based, human; conditions: HT-29, IC50 concentration, 12 to 48 h, vs control
Procedure: (§4) A luminescence-based analysis was performed to investigate the activity of caspase 3/7 and caspase 9 using the Caspase-Glo 9 Assay and Caspase-Glo 3/7 Assay commercial kits (Promega Corporation, Fitchburg, WI, USA) as described previously. […] After incubation, 100 μl of the caspase-Glo reagent was added to each well according to the manufacturer’s protocol. Luminescence, which represents the caspase activities, was measured using a luminescence microplate reader (Tecan Infinite 200 Pro).

caspase 9 = experiment: Caspase-Glo 9 luminescence assay; type: cell-based, human; conditions: HT-29, IC50 concentration, 12 to 48 h, vs control
Procedure: as §4

HT-29 cells [8] = experiment: Multiple cytotoxicity assay (Cellomics Multiparameter Cytotoxicity 3 Kit); type: cell-based, human
Procedure: The simultaneous analysis of critical apoptosis markers, namely cell membrane permeability, cytochrome c leakage from the mitochondria, mitochondrial membrane potential (MMP) and total nuclear intensity, in HT-29 cells was performed using the Cellomics Multiparameter Cytotoxicity 3 Kit (Cellomics, Pittsburgh, PA, USA) as previously described in detail. […] After incubation, the treated cells were stained with a cell permeability dye (FITC), a cytochrome c dye (Cy3), a mitochondrial membrane potential dye (Cy5) and a nuclear dye (Hoechst 33342), according to the vendor’s protocol. The plates were analyzed using a Cell Reporter cytofluorimeter system (Gentix/Molecular Devices, United Kingdom).

Bax [9] = experiment: Q-PCR gene expression analysis of Bax; type: cell-based, human; conditions: HT-29, IC50 concentration, 48 h, normalized to β-actin
Procedure: (§5) The mRNA expression of two proteins, Bcl-2 and Bax, was quantified using real-time Q-PCR analysis as described previously with some modifications. […] The total RNA of treated cells was isolated using the RNeasy Plus Mini kit (Qiagen, Hilden, Germany) followed by the synthesis of the complementary DNA using the iScript cDNA synthesis kit (Biorad, Hercules, CA, USA). Q-PCR was performed on the StepOne PLUS real-time PCR machine (Applied Biosystems, Carlsbad, CA, USA). The β-actin housekeeping gene was used as a positive reference and was applied to normalize the target mRNA. The Q-PCR master mix was provided by Solaris Q-PCR Expression Assays (Thermo Fisher Scientific, Waltham, MA, USA) for the gene expression analysis of Bcl-2, AX-003307-00-0100; Bax, AX-003308-00-0100; and β-actin, AX-003451-00-0100.

Bcl-2 [10] = experiment: Q-PCR gene expression analysis of Bcl-2; type: cell-based, human; conditions: HT-29, IC50 concentration, 12 to 48 h
Procedure: as §5

Bax [11] = experiment: Immunofluorescence analysis of Bax; type: cell-based, human; conditions: HT-29, IC50 concentration, 48 h
Procedure: (§6) The perturbation in the protein expressions of Bcl-2 and Bax was investigated using immunofluorescence analysis as previously described in detail. […] After washing the cells twice with PBS, they were fixed in 4% paraformaldehyde at 25°C for 20 min prior to blocking with blocking buffer (0.03% Triton X-100/PBS and normal serum) for 1 h. The cells were then supplemented with a primary antibody solution and incubated overnight at 4°C. After incubation, the cells were treated with Bcl-2 and Bax flurochrome-conjugated secondary antibody (Santa Cruz Biotechnology, Santa Cruz, CA, USA) for 1 h. The cells were then washed twice with PBS prior to staining with DAPI. The stained cells were examined using the Cell Reporter cytofluorimeter system.

Bcl-2 [12] = experiment: Immunofluorescence analysis of Bcl-2; type: cell-based, human; conditions: HT-29, IC50 concentration, 12, 24 and 48 h, compared with control
Procedure: as §6

[13] = 5-FU 35 mg/kg intra-peritoneally for five consecutive days, AOM-induced rats

- IC50 ([3]; Homo sapiens, HT-29, 12 h, read-out: IC50): 4.85 ± 0.38 µg/mL (≈ 37.3 µM)
- IC50 ([3]; Homo sapiens, HT-29, 24 h, read-out: IC50): 2.96 ± 0.43 µg/mL (≈ 22.8 µM)
- IC50 ([3]; Homo sapiens, HT-29, 48 h, read-out: IC50): 1.5 ± 0.17 µg/mL (≈ 11.5 µM)
Molecule: O=c1[nH]cc(F)c(=O)[nH]1 [5-FU, 5-fluorouracil]
- No. of crypts per ACF: 1 crypt (AOM-induced colonic ACF; [13]): 12 ± 0.26
- No. of crypts per ACF: 2 crypt (AOM-induced colonic ACF; [13]): 6 ± 0.45
- No. of crypts per ACF: 3 crypt (AOM-induced colonic ACF; [13]): 7 ± 0.78
- No. of crypts per ACF: 4 crypt and more (AOM-induced colonic ACF; [13]): 4 ± 0.18
- Total ACF (AOM-induced colonic ACF; [13]): 29 ± 1.40
- Inhibition of ACF formation (AOM-induced colonic ACF; 5-FU 35 mg/kg intra-peritoneally, compared with cancer control): 79.5%
- PCNA labeling index (PI) (PCNA): 24%
- Bax expression in colon tissues (Bax [1]): up-regulation
- Bcl-2 expression in colon tissues (Bcl-2 [2]): down-regulation
- IC50 ([4]; Homo sapiens, CCD-841, CCD841, 12 h, read-out: IC50): 58.5 ± 2.09 µg/mL (≈ 450 µM)
- IC50 ([4]; Homo sapiens, CCD-841, CCD841, 24 h, read-out: IC50): 44.4 ± 2.25 µg/mL (≈ 341 µM)
- IC50 ([4]; Homo sapiens, CCD-841, CCD841, 48 h, read-out: IC50): 36.3 ± 0.43 µg/mL (≈ 279 µM)

Molecule: annomuricin E
- IC50 ([3]; HT-29, 12 h): 5.72 ± 0.41 µg/mL
- IC50 ([3]; HT-29, 24 h): 3.49 ± 0.22 µg/mL
- IC50 ([3]; HT-29, 48 h): 1.62 ± 0.24 µg/mL
- IC50 ([4]; CCD841, 12 h): 64.32 ± 3.76 µg/mL
- IC50 ([4]; CCD841, 24 h): 47.10 ± 0.47 µg/mL
- IC50 ([4]; CCD841, 48 h): 32.51 ± 1.18 µg/mL
- Lowest concentration with significant LDH leakage (HT-29 cells [5]): 4 µg/mL
- Percentage of cells arrested at the G1 phase (HT-29 cells [6]; 24 h): 89.65%
- Percentage of cells arrested at the G1 phase (HT-29 cells [6]; 48 h): 94.60%
- Percentage of late apoptotic cells (Annexin V+/PI+) (HT-29 cells [7]; 12 h (control 0.5%)): 6.9%
- Percentage of early apoptotic cells (Annexin V+/PI-) (HT-29 cells [7]; 12 h (control 3.6%)): 13.9%
- Percentage of early apoptotic cells (Annexin V+/PI-) (HT-29 cells [7]; 24 h (peak)): 27.3%
- Percentage of late apoptotic cells (Annexin V+/PI+) (HT-29 cells [7]; 24 h (peak)): 13.6%
- Caspase 3/7 activity (caspase 3/7): significantly elevated
- Caspase 9 activity (caspase 9): significantly elevated
- Total nuclear intensity (HT-29 cells [8]; HT-29, IC50 concentration, 12, 24 and 48 h): significantly elevated
- Mitochondrial membrane potential (MMP) (HT-29 cells [8]; HT-29, IC50 concentration, 12 h): significant collapse
- Cytochrome c leakage from the mitochondria (HT-29 cells [8]; HT-29, IC50 concentration, from 12 h, time-dependent): increase in cytochrome c leakage
- Cell membrane permeability (HT-29 cells [8]; HT-29, IC50 concentration, only 24 and 48 h): significantly increased
- Bax mRNA expression, increase relative to control (Bax [9]): approximately 5 fold
- Bcl-2 mRNA expression (Bcl-2 [10]): time-dependently reduced
- Bax protein expression (FITC fluorescent intensity), increase relative to control (Bax [11]): approximately 10 fold
- Bcl-2 protein expression (Bcl-2 [12]): significantly and dose-dependently reduced
